Non-standard residues stand in square brackets, D forms with d. Residues, ends and D or L forms follow the SMILES beside them. *: point of attachment. Sta = CC(C)C[C@H](N)[C@@H](O)CC(=O)O; Isovaleryl = CC(C)CC(=O)*
Target: T1, Paramecium cathepsin L isozymes (30 kDa and 33 kDa) (Paramecium tetraurelia, UniProt Q94714)
T1 construct: identical enzyme proteins were involved, with the proteins possibly only being processed differently; from tissue; host or cells: Paramecium tetraurelia mass cultures (cell homogenate)
T1 sequence (Q94714 110-314): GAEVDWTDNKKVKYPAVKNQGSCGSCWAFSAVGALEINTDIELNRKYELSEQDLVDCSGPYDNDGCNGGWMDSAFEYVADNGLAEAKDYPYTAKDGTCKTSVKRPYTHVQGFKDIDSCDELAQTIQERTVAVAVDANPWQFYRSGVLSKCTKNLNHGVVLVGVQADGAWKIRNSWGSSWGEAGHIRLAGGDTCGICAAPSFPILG
Assay: Effect of class-specific protease inhibitors on the purified Paramecium proteases (cathepsin L assay)
Format: biochemical
Settings: 32P phosphorylase a as substrate
Method: ^32P-Phosphorylase a (approx. 5×10^4 cpm/min) was used as substrate. A test mixture (30 μl) contained 10 μM substrate, 12 mM Tris/HCl (pH 7.0), 50 μM EDTA, 10 mM 2-mercaptoethanol, 5 mM caffeine and 6.7 μg of BSA. The reaction was stopped, after incubating at 30° C. for 10 minutes, by adding 200 μl of trichloroacetic acid (20% w/v). The radioactivity of the non-precipitable peptides was determined in the supernatant following centrifugation. One unit of enzyme activity corresponds to the quantity which liberates 1 μmol of soluble ^32P-phosphopeptide/min.
All the purification steps were carried out at 4° C. The cells were homogenized in 50 mM Tris/HCl (pH 7.0), 5 mM EDTA using a French press. Cell debris were removed by centrifugation (23,000×g, 60 min; 100,000×g, 60 min). The supernatant was loaded onto a DEAE Sepharose® column which was equilibrated with 20 mM Tris/HCl (pH 7.0). About half the protease activity eluted with the flowthrough. The column was washed with 250 mM NaCl. The remaining protease activity was eluted with 450 mM KCl. After that, the active fractions were purified through a Sephacryl® S-100 HR column. The protease eluted at approximately 27 kDa. The pooled active fractions were subsequently loaded onto a mono Q column. Elution was carried out using a linear gradient (60 ml of from 100 to 350 mM NaCl). Two active proteases (30 kDa and 33 kDa) were separated in this step. Purity was examined by means of SDS-PAGE. When using ^32P phosphorylase a as substrate, the pH optimum of the two isozymes was 6.5; the temperature optimum was 56° C.

Row | Compound | effect of inhibitor on protease activity
1 | O=C(O)CN(CCN(CC(=O)O)CC(=O)O)CC(=O)O [EDTA] | no inhibitory effect
2 | aprotinin | no inhibitory effect
3 | Cc1ccc(S(=O)(=O)NC(CCCCN)C(=O)CCl)cc1 (stereo not drawn) [TLCK] | reduced the activity drastically
4 | CC(=O)N[C@@H](CC(C)C)C(=O)N[C@@H](CC(C)C)C(=O)N[C@H](C=O)CCCNC(=N)N [leupeptin] | reduced the activity drastically
5 | CC(C)CC(=O)N[C@H](C(=O)N[C@H](C(=O)N[C@@H](CC(C)C)[C@@H](O)CC(=O)N[C@@H](C)C(=O)N[C@@H](CC(C)C)[C@@H](O)CC(=O)O)C(C)C)C(C)C [pepstatin] (Isovaleryl-VV[Sta]A[Sta]-OH) | no inhibitory effect
6 | cystatin | reduced the activity drastically
